Here are results for eleven compounds from DBAASP.

What all share (assay): ≥ marks a high value that may be exact or a test limit, other limits are often not marked, values filed in µg/mL are converted to µM
Experiment [1] has as its system Escherichia coli.
Experiment [2] relates to Staphylococcus aureus.
Experiment [3] concerns Bacillus cereus.

In brackets after ≈: the same amount, converted by molar mass. Bounds are passed on as bounds.

As to `CC(C)C[C@H](NC(=O)[C@H](CCCCN)NC(=O)[C@H](Cc1ccccc1)NC(=O)[C@@H](NC(=O)[C@H](CCCCN)NC(=O)CNC(=O)[C@H](CC(C)C)NC(=O)[C@@H](N)Cc1ccccc1)C(C)C)C(=O)N[C@@H](C)C(=O)N[C@@H](CO)C(=O)N[C@@H](CCCCN)C(=O)N[C@H](C(=O)N[C@@H](Cc1ccccc1)C(=O)N[C@@H](CCCCN)C(=O)N[C@@H](C)C(=O)N[C@H](C(=O)N[C@@H](Cc1ccccc1)C(=O)NCC(=O)N[C@@H](CCCCN)C(=O)N[C@H](C(=O)O)C(C)C)C(C)C)C(C)C` [FLGKVFKLASKVFKAVFGKV], the MIC (in general, the lowest concentration that inhibits growth of the organism) in experiment [1] turned out to be 7.23 µM (≈ 16 µg/mL); in experiment [2], 1.81 µM (≈ 4 µg/mL); in experiment [3], 3.61 µM (≈ 8 µg/mL).

For the compound `CC(C)C[C@H](NC(=O)[C@H](CCCCN)NC(=O)[C@H](Cc1ccccc1)NC(=O)[C@@H](NC(=O)[C@H](CCCCN)NC(=O)CNC(=O)[C@H](CC(C)C)NC(=O)[C@@H](N)Cc1ccccc1)C(C)C)C(=O)N[C@@H](C)C(=O)N[C@@H](CO)C(=O)N[C@@H](CCCCN)C(=O)N[C@H](C(=O)N[C@@H](Cc1ccccc1)C(=O)N1CCC[C@H]1C(=O)N[C@@H](CCCCN)C(=O)N[C@H](C(=O)N[C@@H](Cc1ccccc1)C(=O)NCC(=O)N[C@@H](CCCCN)C(=O)N[C@H](C(=O)O)C(C)C)C(C)C)C(C)C` [FLGKVFKLASKVFPKVFGKV], the MIC was 7.14 µM (≈ 16 µg/mL) in experiment [1], 28.6 µM (≈ 64 µg/mL) in experiment [2] and 14.3 µM (≈ 32 µg/mL) in experiment [3].

Consider `CC(C)C[C@H](NC(=O)[C@H](CCCCN)NC(=O)[C@H](Cc1ccccc1)NC(=O)[C@@H](NC(=O)[C@@H](NC(=O)CNC(=O)[C@H](CC(C)C)NC(=O)[C@@H](N)Cc1ccccc1)C(C)C)C(C)C)C(=O)N[C@@H](C)C(=O)N[C@@H](CO)C(=O)N[C@@H](CCCCN)C(=O)N[C@H](C(=O)N[C@@H](Cc1ccccc1)C(=O)NCC(=O)N[C@@H](C)C(=O)N[C@H](C(=O)N[C@@H](Cc1ccccc1)C(=O)NCC(=O)N[C@@H](CCCCN)C(=O)N[C@H](C(=O)O)C(C)C)C(C)C)C(C)C` [FLGVVFKLASKVFGAVFGKV], for which the results for the MIC in experiment [1], in experiment [2] and in experiment [3] were more than 121 µM, 3.79 µM (≈ 8 µg/mL) and 7.57 µM (≈ 16 µg/mL), respectively.

With `CC(C)C[C@H](NC(=O)[C@H](CCCCN)NC(=O)[C@H](Cc1ccccc1)NC(=O)[C@@H](NC(=O)[C@H](CCCCN)NC(=O)[C@H](CCCCN)NC(=O)[C@H](CC(C)C)NC(=O)[C@@H](N)Cc1ccccc1)C(C)C)C(=O)N[C@@H](C)C(=O)N[C@@H](CO)C(=O)N[C@@H](CCCCN)C(=O)N[C@H](C(=O)N[C@@H](Cc1ccccc1)C(=O)N1CCC[C@H]1C(=O)N[C@@H](C)C(=O)N[C@H](C(=O)N[C@@H](Cc1ccccc1)C(=O)NCC(=O)N[C@@H](CCCCN)C(=O)N[C@H](C(=O)O)C(C)C)C(C)C)C(C)C` [FLKKVFKLASKVFPAVFGKV], the values for the MIC in experiment [1], in experiment [2] and in experiment [3] were 1.77 µM (≈ 4 µg/mL), 28.4 µM (≈ 64 µg/mL) and 14.2 µM (≈ 32 µg/mL), respectively.

For `CC[C@H](C)[C@H](NC(=O)[C@H](C)NC(=O)CNC(=O)[C@H](Cc1ccccc1)NC(=O)[C@@H](NC(=O)[C@H](CO)NC(=O)[C@@H]1CCCN1C(=O)[C@@H](NC(=O)[C@@H](NC(=O)[C@H](CCCCN)NC(=O)[C@H](CO)NC(=O)[C@H](C)NC(=O)[C@H](CC(C)C)NC(=O)[C@H](CO)NC(=O)CNC(=O)[C@@H](NC(=O)[C@@H](N)Cc1ccccc1)C(C)C)C(C)C)C(C)C)C(C)C)C(=O)N[C@@H](CCCCN)C(=O)N[C@H](C(=O)N[C@@H](CCCCN)C(=O)O)[C@@H](C)O` [FVGSLASKVVPSVFGAIKTK], the MIC is more than 126 µM in experiment [1] and not below 126 µM in experiment [3].

Consider `CC[C@H](C)[C@H](NC(=O)[C@H](Cc1ccccc1)NC(=O)CN)C(=O)NCC(=O)N[C@@H](CCCCN)C(=O)N[C@@H](CC(C)C)C(=O)N[C@@H](C)C(=O)N[C@@H](CO)C(=O)N[C@@H](CCCCN)C(=O)N[C@H](C(=O)N[C@H](C(=O)N1CCC[C@H]1C(=O)N[C@@H](CO)C(=O)N[C@H](C(=O)N[C@@H](Cc1ccc(O)cc1)C(=O)N[C@@H](CS)C(=O)N[C@@H](CCCCN)C(=O)N[C@H](C(=O)N[C@H](C(=O)NCC(=O)O)[C@@H](C)O)C(C)C)C(C)C)C(C)C)C(C)C` [GFIGKLASKVVPSVYCKVTG], for which the values for the minimum inhibitory concentration (MIC) in experiment [1] and in experiment [3] were 62.3 µM (≈ 128 µg/mL) and not below 125 µM, respectively.

Regarding `CC[C@H](C)[C@H](NC(=O)[C@@H](NC(=O)[C@H](C)NC(=O)[C@H](C)NC(=O)[C@@H](NC(=O)[C@H](CCCN=C(N)N)NC(=O)[C@H](CO)NC(=O)[C@H](CO)NC(=O)[C@@H](NC(=O)[C@@H](NC(=O)[C@H](CC(C)C)NC(=O)[C@@H](NC(=O)[C@H](Cc1ccccc1)NC(=O)[C@@H]1CCCN1C(=O)[C@H](CO)NC(=O)[C@@H](N)CCCCN)C(C)C)C(C)C)C(C)C)C(C)C)C(C)C)C(=O)N[C@@H](CCCCN)C(=O)N[C@@H](CO)C(=O)N[C@@H](CC(C)C)C(=O)N1CCC[C@H]1C(=O)O` [KSPFVLVVSSRVAAVIKSLP], the MIC in experiment [1] was more than 122 µM; in experiment [3], not below 122 µM.

Consider `CC[C@H](C)[C@H](NC(=O)[C@H](CO)NC(=O)[C@H](C)NC(=O)[C@H](CCCCN)NC(=O)[C@H](CC(C)C)NC(=O)[C@@H](NC(=O)[C@@H](NC(=O)[C@@H]1CCCN1C(=O)[C@@H](NC(=O)[C@@H](NC(=O)[C@@H](N)CCCCN)[C@@H](C)O)C(C)C)C(C)C)C(C)C)C(=O)N[C@@H](CCCCN)C(=O)N[C@H](C(=O)N[C@@H](CO)C(=O)N[C@@H](CO)C(=O)N[C@@H](C)C(=O)NCC(=O)N[C@@H](Cc1ccccc1)C(=O)NCC(=O)N[C@@H](Cc1ccccc1)C(=O)O)C(C)C` [KTVPVVLKASIKVSSAGFGF], for which the MIC was more than 126 µM in experiment [1] and not below 126 µM in experiment [3].

Regarding `CC(C)[C@H](NC(=O)[C@H](CO)NC(=O)[C@@H](NC(=O)[C@H](CCCCN)NC(=O)[C@H](C)NC(=O)[C@@H](NC(=O)[C@@H](NC(=O)[C@H](CCCCN)NC(=O)[C@@H](NC(=O)[C@H](Cc1ccccc1)NC(=O)[C@H](CO)NC(=O)[C@H](CS)NC(=O)[C@@H]1CCCN1C(=O)[C@H](Cc1ccc(O)cc1)NC(=O)[C@H](CO)NC(=O)CNC(=O)[C@H](CCCCN)NC(=O)CNC(=O)[C@@H](NC(=O)[C@@H](N)CCCCN)C(C)C)C(C)C)C(C)C)C(C)C)C(C)C)C(=O)O` [KVGKGSYPCSFVKVVAKVSV], the MIC was more than 123 µM in experiment [1] and not below 123 µM in experiment [3].

Take `CC(C)C[C@H](NC(=O)CNC(=O)[C@H](Cc1ccccc1)NC(=O)[C@@H](NC(=O)[C@H](CO)NC(=O)[C@@H]1CCCN1C(=O)[C@@H](NC(=O)[C@@H](NC(=O)[C@H](CCCCN)NC(=O)[C@H](CO)NC(=O)[C@H](C)NC(=O)[C@H](CC(C)C)NC(=O)[C@H](CCCCN)NC(=O)[C@H](Cc1ccccc1)NC(=O)[C@@H](NC(=O)[C@H](C)NC(=O)[C@@H]1CCCN1C(=O)[C@@H](N)CC(C)C)C(C)C)C(C)C)C(C)C)C(C)C)C(=O)N[C@H](C(=O)N[C@@H](CCCCN)C(=O)O)C(C)C` [LPAVFKLASKVVPSVFGLVK]: the MIC in experiment [1] is more than 122 µM; in experiment [3], not below 122 µM.

Take `CC(C)[C@H](N)C(=O)N[C@H](C(=O)N[C@@H](Cc1ccccc1)C(=O)N[C@@H](CCCN=C(N)N)C(=O)N[C@H](C(=O)N[C@@H](C)C(=O)N[C@@H](CO)C(=O)N[C@@H](CCCCN)C(=O)N[C@H](C(=O)N[C@@H](Cc1ccccc1)C(=O)N1CCC[C@H]1C(=O)N[C@@H](C)C(=O)N[C@H](C(=O)N[C@@H](Cc1ccc(O)cc1)C(=O)N[C@@H](CS)C(=O)N[C@H](C(=O)N[C@H](C(=O)N[C@@H](CO)C(=O)N[C@@H](CCCCN)C(=O)N[C@@H](CCCCN)C(=O)O)C(C)C)[C@@H](C)O)C(C)C)C(C)C)C(C)C)C(C)C` [VVFRVASKVFPAVYCTVSKK]: the results for the MIC in experiment [1] and in experiment [3] were 57.4 µM (≈ 128 µg/mL) and not below 115 µM, respectively.
